Results published in ChEMBL document CHEMBL4507268 (2021).

Experiments:
Conditions in all cases: Compound concentration 1.0 uM
[1] = biological target: Ribosomal protein S6 kinase alpha-2 (Homo sapiens) (UniProt Q15349)
[2] = biological target: Tyrosine-protein kinase Lck (Homo sapiens) (UniProt P06239)
[3] = biological target: Serine/threonine-protein kinase PAK 3 (Homo sapiens) (UniProt O75914)
[4] = biological target: T1, cGMP-dependent protein kinase 1 (Homo sapiens) (UniProt Q13976)
T1 sequence (whole entry): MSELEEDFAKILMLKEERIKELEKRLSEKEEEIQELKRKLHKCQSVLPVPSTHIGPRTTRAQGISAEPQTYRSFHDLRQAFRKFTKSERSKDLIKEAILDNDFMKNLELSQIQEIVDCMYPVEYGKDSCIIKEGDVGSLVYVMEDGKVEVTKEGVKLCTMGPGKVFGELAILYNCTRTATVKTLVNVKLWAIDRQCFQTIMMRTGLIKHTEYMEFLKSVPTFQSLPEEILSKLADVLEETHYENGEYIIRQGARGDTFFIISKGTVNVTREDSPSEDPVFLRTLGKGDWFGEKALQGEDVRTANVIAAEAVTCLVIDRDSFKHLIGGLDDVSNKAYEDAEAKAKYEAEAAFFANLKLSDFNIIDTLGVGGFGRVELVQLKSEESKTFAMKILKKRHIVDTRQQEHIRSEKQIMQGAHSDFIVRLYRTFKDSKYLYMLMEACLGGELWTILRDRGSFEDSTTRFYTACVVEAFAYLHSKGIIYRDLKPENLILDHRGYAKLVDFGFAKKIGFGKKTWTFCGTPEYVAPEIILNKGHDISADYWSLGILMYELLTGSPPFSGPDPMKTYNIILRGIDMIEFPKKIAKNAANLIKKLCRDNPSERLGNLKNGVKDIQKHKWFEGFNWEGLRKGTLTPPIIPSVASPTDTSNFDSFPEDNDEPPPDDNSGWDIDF

[5] = biological target: Insulin receptor (Homo sapiens) (UniProt P06213)
[6] = biological target: T2, Serine/threonine-protein kinase D2 (Homo sapiens) (UniProt Q9BZL6)
T2 sequence (whole entry): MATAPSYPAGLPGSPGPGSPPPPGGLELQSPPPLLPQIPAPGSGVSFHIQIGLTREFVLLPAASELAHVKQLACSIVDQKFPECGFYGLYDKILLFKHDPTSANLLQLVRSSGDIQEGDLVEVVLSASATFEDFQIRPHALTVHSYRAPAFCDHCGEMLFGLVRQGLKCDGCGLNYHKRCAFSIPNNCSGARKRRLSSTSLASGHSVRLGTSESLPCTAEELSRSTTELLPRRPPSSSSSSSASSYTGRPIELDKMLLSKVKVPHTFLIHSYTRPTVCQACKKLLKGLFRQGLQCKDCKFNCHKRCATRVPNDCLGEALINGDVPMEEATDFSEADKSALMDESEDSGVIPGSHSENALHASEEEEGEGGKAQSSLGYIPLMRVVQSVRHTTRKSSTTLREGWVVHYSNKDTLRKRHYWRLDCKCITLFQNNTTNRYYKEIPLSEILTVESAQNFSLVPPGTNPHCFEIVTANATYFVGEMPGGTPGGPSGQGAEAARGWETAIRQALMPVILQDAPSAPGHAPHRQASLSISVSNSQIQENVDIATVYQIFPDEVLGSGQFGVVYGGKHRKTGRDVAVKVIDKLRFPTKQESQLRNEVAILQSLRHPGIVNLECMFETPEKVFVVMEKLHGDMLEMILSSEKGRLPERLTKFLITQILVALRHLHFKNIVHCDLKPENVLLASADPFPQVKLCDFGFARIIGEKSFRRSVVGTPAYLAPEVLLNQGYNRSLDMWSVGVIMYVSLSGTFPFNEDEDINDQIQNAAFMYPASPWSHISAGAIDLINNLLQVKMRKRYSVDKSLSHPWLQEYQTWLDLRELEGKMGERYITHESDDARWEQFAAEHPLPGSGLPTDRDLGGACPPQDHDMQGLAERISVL

[7] = biological target: T3, Protein kinase C epsilon type (Homo sapiens) (UniProt Q02156)
T3 sequence (whole entry): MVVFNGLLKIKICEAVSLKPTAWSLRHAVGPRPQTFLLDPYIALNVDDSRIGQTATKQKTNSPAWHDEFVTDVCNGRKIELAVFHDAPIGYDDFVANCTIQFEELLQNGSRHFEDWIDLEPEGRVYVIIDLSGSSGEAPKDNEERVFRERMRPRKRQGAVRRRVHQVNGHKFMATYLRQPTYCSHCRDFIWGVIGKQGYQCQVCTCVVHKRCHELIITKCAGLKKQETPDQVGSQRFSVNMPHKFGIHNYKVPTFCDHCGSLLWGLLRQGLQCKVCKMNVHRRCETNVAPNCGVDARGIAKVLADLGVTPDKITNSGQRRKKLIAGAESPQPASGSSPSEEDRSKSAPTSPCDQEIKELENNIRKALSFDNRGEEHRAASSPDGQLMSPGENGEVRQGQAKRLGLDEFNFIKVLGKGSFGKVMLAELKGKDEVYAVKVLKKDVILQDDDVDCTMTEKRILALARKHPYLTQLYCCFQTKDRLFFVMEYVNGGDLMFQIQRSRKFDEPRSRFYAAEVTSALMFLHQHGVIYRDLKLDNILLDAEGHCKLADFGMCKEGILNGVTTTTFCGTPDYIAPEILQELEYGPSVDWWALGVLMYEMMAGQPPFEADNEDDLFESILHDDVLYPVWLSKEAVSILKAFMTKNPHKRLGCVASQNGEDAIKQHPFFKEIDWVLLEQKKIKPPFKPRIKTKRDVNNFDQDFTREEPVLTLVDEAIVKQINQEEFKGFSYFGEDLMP

Measured: % residual kinase activity

Serine/threonine-protein kinase PAK 3 (Homo sapiens), sequence (O75914 whole entry, looked up): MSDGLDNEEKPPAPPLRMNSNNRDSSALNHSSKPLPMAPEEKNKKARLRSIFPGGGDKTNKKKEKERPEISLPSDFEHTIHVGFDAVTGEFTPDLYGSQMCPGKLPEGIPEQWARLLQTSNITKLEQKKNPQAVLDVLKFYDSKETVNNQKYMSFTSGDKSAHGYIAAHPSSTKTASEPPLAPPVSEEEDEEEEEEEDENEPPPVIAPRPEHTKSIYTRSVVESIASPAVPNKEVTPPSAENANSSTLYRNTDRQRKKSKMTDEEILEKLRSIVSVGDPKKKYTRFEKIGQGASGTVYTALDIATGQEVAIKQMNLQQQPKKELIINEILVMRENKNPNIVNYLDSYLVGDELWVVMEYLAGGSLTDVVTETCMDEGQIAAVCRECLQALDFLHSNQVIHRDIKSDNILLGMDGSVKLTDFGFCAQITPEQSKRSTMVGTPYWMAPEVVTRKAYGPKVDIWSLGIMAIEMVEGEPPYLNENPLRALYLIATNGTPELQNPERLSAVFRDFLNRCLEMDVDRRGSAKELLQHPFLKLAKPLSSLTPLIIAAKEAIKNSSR
Tyrosine-protein kinase Lck (Homo sapiens), sequence (P06239 2-509 limits assumed): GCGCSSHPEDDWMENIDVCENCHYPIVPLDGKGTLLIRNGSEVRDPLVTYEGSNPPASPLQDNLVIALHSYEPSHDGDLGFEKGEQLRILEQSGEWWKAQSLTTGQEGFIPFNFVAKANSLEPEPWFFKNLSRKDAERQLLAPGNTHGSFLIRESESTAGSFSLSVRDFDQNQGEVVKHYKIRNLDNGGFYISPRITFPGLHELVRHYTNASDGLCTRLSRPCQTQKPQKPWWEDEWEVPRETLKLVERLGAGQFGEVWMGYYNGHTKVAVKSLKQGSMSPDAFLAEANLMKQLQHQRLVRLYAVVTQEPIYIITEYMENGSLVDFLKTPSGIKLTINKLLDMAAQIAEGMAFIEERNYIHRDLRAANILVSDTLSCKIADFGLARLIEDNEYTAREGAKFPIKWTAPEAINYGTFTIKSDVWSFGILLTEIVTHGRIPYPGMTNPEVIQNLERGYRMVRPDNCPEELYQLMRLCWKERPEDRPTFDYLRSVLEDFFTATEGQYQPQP
Insulin receptor (Homo sapiens), sequence (P06213 28-758 limits assumed): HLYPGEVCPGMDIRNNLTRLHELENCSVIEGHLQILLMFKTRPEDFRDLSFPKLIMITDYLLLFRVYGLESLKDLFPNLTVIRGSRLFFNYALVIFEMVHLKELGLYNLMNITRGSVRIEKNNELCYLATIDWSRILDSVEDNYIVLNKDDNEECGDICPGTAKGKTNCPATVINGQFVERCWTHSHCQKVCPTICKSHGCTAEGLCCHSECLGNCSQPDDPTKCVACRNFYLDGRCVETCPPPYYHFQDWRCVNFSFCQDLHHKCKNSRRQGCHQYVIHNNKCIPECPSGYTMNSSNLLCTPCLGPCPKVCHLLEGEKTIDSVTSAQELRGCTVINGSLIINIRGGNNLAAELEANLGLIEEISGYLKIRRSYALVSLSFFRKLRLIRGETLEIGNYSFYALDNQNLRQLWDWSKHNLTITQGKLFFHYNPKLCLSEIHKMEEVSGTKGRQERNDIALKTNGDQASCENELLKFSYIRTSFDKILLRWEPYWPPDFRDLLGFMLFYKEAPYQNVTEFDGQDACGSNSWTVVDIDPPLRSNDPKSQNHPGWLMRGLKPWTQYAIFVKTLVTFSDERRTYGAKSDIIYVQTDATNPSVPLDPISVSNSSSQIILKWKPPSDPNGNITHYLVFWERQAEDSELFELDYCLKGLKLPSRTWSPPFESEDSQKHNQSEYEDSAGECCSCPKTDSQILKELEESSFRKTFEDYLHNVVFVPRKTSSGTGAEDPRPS
Insulin receptor (Homo sapiens), sequence (P06213 763-1382 limits assumed): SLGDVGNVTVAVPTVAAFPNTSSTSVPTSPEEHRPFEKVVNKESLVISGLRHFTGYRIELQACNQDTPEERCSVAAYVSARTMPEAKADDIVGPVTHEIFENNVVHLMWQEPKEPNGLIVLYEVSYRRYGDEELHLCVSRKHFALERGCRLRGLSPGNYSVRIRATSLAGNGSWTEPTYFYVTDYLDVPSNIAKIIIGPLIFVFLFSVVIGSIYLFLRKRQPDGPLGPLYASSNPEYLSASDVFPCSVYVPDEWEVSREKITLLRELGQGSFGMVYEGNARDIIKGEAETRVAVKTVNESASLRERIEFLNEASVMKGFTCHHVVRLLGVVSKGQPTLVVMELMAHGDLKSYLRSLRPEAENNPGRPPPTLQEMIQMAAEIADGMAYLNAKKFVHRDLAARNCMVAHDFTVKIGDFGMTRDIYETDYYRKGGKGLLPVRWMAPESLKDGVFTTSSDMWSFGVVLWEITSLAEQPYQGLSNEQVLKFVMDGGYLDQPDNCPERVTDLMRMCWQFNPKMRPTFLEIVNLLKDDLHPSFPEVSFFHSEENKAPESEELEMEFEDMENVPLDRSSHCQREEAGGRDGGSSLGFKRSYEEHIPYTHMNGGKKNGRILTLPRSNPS
Ribosomal protein S6 kinase alpha-2 (Homo sapiens), sequence (Q15349 whole entry): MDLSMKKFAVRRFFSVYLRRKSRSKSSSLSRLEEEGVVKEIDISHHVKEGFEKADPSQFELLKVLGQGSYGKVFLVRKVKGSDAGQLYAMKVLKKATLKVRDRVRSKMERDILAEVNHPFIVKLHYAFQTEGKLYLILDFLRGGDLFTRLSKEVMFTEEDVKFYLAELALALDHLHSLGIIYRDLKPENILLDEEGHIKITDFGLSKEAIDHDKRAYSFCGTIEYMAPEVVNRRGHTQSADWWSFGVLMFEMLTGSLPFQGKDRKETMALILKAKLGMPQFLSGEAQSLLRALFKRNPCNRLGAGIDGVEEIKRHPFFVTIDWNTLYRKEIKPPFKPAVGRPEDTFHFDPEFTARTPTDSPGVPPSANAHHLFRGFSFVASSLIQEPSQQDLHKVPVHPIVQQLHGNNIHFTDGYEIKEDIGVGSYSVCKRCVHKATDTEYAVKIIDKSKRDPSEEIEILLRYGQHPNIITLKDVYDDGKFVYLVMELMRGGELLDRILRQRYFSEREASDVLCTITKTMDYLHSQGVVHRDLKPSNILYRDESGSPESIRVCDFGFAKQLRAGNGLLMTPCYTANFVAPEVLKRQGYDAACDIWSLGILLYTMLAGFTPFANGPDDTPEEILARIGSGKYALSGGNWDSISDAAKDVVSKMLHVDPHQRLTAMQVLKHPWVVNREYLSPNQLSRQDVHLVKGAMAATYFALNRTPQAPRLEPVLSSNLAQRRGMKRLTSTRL

CN1CCN(c2cnc3c(C4CCN(C(=O)c5ccc(OC(F)(F)F)cc5N)CC4)ncnc3c2)CC1 [BAY-885]
inactive: [1] 98% | [2] 98% | [3] 106% | [4] 115% | [5] 99% | [6] 106% | [7] 104%
